# Reference: patent publication US20260200890A1, “ADAR1 INHIBITORS AND METHODS OF USING THE SAME” (AVAMMUNE THERAPEUTICS INC., priority 2022, published 2026)
# Target: T1, ADAR1 (Homo sapiens, UniProt P55265)
# T1 construct: endogenous in cells; host or cells: p110 KO A549 dual cells
# T1 sequence (P55265 1-1226): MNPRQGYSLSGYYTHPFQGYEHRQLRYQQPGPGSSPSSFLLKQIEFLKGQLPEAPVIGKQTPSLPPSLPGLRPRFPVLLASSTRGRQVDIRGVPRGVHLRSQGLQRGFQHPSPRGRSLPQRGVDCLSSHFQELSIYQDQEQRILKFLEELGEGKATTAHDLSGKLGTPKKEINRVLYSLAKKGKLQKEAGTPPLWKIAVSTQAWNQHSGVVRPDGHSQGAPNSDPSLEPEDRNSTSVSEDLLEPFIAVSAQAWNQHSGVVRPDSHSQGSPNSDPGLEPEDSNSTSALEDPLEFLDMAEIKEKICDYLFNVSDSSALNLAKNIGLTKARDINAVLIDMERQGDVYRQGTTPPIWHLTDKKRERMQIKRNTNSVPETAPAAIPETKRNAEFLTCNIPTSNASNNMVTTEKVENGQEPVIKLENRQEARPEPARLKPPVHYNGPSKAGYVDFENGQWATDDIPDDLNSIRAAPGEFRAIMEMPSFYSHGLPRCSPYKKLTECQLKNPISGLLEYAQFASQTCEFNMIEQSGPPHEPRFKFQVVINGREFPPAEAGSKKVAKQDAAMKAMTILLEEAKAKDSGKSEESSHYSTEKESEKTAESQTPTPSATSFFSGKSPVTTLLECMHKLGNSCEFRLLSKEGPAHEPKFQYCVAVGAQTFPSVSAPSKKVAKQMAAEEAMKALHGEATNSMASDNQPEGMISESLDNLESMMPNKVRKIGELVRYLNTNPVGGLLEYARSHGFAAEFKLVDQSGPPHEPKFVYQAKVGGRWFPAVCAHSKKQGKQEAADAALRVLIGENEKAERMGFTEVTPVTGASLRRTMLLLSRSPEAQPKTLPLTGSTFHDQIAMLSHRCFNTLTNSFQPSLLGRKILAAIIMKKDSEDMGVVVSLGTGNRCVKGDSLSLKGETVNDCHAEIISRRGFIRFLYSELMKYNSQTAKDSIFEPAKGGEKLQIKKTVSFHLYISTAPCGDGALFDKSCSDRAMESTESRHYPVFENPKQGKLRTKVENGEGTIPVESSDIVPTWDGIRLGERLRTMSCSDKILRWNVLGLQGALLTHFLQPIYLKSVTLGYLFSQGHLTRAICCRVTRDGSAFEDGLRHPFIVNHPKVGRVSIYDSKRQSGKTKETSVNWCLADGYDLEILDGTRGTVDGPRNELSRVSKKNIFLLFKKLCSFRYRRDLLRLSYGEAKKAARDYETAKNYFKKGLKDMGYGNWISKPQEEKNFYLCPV
# Assay: ADAR1 Inhibition Assay (IFN fold-induction, Quanti-Luc luminescence, p110 KO A549 dual cells)
# Format: cell-based
# Conditions: IFN fold-induction vs DMSO, 24 and 48 h
# Procedure: An ADAR1 Inhibition Assay was used to determine the biological activity (EC50) of compounds disclosed herein. 100 μL of p110 KO A549 dual cell suspension in supplemented DMEM (20,000 cells per well) was added into a flat bottom 96 well plate. Next day, post media change, 180 μL of supplemented DMEM was added. 20 μL of test compound or positive control was added to the respective wells (Final concentration of DMSO is 1%). The plate was incubated for 24 and 48 hours at 37° C. in a 5% CO2 incubator. After 24 and 48 h, 20 μL of cell suspension was taken in black well plates and 50 μL of Quanti-Luc was added to each well and luminescence was measured using a microplate reader (Spectra Max). IFN fold-induction was plotted considering DMSO as control using the relative luminescence unit (RLU) values. (Fold induction: Sample RLU/Average DMSO RLU).
row,EC50 [µM],SMILES
1,> 100,CCOC(=O)c1c(-c2ccccc2)csc1NC(=O)COC(=O)c1cccc(S(N)(=O)=O)c1 [Compound 3]
2,> 100,CCOC(=O)c1cc(-c2ccccc2)sc1NC(=O)CNC(=O)c1cccc(S(=O)(=O)N(C)C)c1 [Compound 4]
3,> 100,CCOC(=O)c1cc(-c2ccccc2)sc1NC(=O)COC(=O)c1ccccc1 [Compound 5]
4,> 100,CCOC(=O)c1cc(-c2ccccc2)sc1NC(=O)CNC(=O)c1ccccc1 [Compound 6]
5,> 100,CCOC(=O)c1cc(-c2ccccc2)sc1NC(=O)COC(=O)c1cccc(S(=O)(=O)N(C)C)c1 [Compound 7]
6,> 100,CCOC(=O)c1cc(-c2ccccc2)sc1NC(=O)CNc1cccc(S(N)(=O)=O)c1 [Compound 8]
7,> 100,COC(=O)c1nc(NC(=O)COC(=O)c2cccc(S(N)(=O)=O)c2)sc1Br [Compound 9]
8,> 100,CCOC(=O)c1cc(-c2ccccc2)sc1NC(=O)c1cccc(S(N)(=O)=O)c1 [Compound 10]
9,> 100,CCOC(=O)c1cc(-c2ccccc2)sc1NC(=O)CNC(=O)c1cccc(S(=O)(=O)NC)c1 [Compound 11]
10,> 100,CCOC(=O)c1cc(-c2ccccc2)sc1NC(=O)CN [Compound 12]
11,> 100,CCOC(=O)c1cc(-c2ccccc2)sc1NC(=O)CNCCS(N)(=O)=O [Compound 14]
12,> 100,CCOC(=O)c1cc(-c2ccccc2)sc1NC(=O)CNc1cccc(S(=O)(=O)N(C)C)c1 [Compound 15]
13,> 100,CCOC(=O)c1cc(-c2ccccc2)sc1NC(=O)CNC(=O)c1ccc(Br)s1 [Compound 16]
14,> 100,CCOC(=O)c1cc(-c2ccccc2)sc1NC(=O)CN(C)C [Compound 17]
15,> 100,NS(=O)(=O)c1cccc(C(=O)NCC(=O)Nc2ccc(-c3ccccc3)s2)c1 [Compound 18]
16,> 100,NS(=O)(=O)c1cccc(NC(=O)CNC(=O)c2ccc(-c3cccnc3)s2)c1 [Compound 19]
17,> 100,NS(=O)(=O)c1cccc(NC(=O)CNC(=O)c2csc(-c3cccnc3)n2)c1 [Compound 20]
18,> 100,CCOC(=O)c1cc(-c2ccccc2)sc1NC(=O)Nc1cccc(S(N)(=O)=O)c1 [Compound 21]
19,> 100,COC(=O)c1ccsc1NC(=O)CNC(=O)c1cccc(S(N)(=O)=O)c1 [Compound 22]
20,> 100,NS(=O)(=O)c1cccc(C(=O)NCC(=O)Nc2nc3ccccc3s2)c1 [Compound 23]

row,EC50 [µM],SMILES
1,> 100,CCOC(=O)c1cc(-c2ccccc2)sc1NC(=O)CNC(=O)c1ccc(S(N)(=O)=O)cc1 [Compound 24]
2,> 100,NS(=O)(=O)c1cccc(NC(=O)c2csc(-c3ccccc3)c2)c1 [Compound 25]
3,> 100,CCOC(=O)c1cc(-c2ccccc2)sc1NC(=O)CNS(=O)(=O)c1ccc(C)cc1 [Compound 27]
4,> 100,CCOC(=O)c1cc(-c2ccccc2)sc1NC(=O)CNC(=O)c1cccc(S(=O)(=O)N2CCOCC2)c1 [Compound 28]
5,> 100,CCOC(=O)c1cc(-c2ccccc2)sc1NC(=O)CNC(=O)c1cccc(S(=O)(=O)N2CCCC2)c1 [Compound 29]
6,> 100,NS(=O)(=O)c1cccc(NC(=O)CNC(=O)c2csc(-c3ccccc3)c2)c1 [Compound 30]
7,> 100,CCOC(=O)c1cc(-c2ccccc2)sc1NC(=O)CNC(=O)c1ccc(F)c(S(N)(=O)=O)c1 [Compound 31]
8,> 100,NS(=O)(=O)c1cccc(NC(=O)Cn2nnc(-c3ccccn3)n2)c1 [Compound 32]
9,> 100,COC(=O)c1cc(-c2ccncc2)sc1NC(=O)c1cccc(S(N)(=O)=O)c1 [Compound 33]
10,> 100,Cc1cccc(Cl)c1NC(=O)c1csc(NC(=O)c2cccc(S(N)(=O)=O)c2)n1 [Compound 35]
11,> 100,CCOC(=O)c1cc(-c2ccccc2)sc1NC(=O)CNC(=O)c1cccc(S(=O)(=O)N2CCCCC2)c1 [Compound 36]
12,> 100,CCOC(=O)c1cc(-c2ccccc2)sc1NC(=O)COC(=O)c1cc(S(N)(=O)=O)ccc1F [Compound 37]
13,> 100,COC(=O)c1cc(-c2ccncc2)sc1NC(=O)CNC(=O)c1cccc(S(N)(=O)=O)c1 [Compound 38]
14,> 100,NS(=O)(=O)c1cccc(NC(=O)CNC(=O)c2ccc(-c3ccccc3)s2)c1 [Compound 40]
15,> 100,CCOC(=O)c1cc(-c2ccccc2)sc1NC(=O)CNC(=O)c1cccc(S(=O)(=O)NC(C)C)c1 [Compound 41]
16,> 100,NS(=O)(=O)c1cccc(C(=O)NCC(=O)Nc2ccc3cc(Br)ccc3c2)c1 [Compound 43]
17,> 100,CCOC(=O)c1cc(-c2ccccc2)sc1NC(=O)CNC(=O)c1cccc(S(=O)(=O)N2CCNCC2)c1 [Compound 47]
18,> 100,Cc1nc(-c2ccccc2)sc1C(=O)NCC(=O)Nc1cccc(S(N)(=O)=O)c1 [Compound 48]
19,> 100,NS(=O)(=O)c1cccc(C(=O)NCC(=O)Nc2nnc(-c3ccccc3)s2)c1 [Compound 49]
20,> 100,CCOC(=O)c1cc(-c2ccccc2)sc1NC(=O)COC(=O)c1cccc(C(N)=O)c1 [Compound 50]

row,EC50 [µM],SMILES
1,> 100,CCOC(=O)c1cc(-c2cc(F)cc(F)c2)sc1NC(=O)COC(=O)c1cccc(S(N)(=O)=O)c1 [Compound 52]
2,> 100,CCOC(=O)c1cc(-c2ccccc2)sc1NC(=O)CNC(=O)c1cc(S(N)(=O)=O)ccc1C [Compound 53]
3,> 100,CCOC(=O)c1c(NC(=O)COC(=O)c2cccc(S(N)(=O)=O)c2)sc(C)c1C [Compound 54]
4,> 100,CCOC(=O)c1cc(-c2ccccc2)sc1NC(=O)c1cccc(S(=O)(=O)NC)c1 [Compound 55]
5,> 100,CCOC(=O)c1cc(-c2ccccc2)sc1NC(=O)CNC(=O)c1cc(S(N)(=O)=O)ccc1F [Compound 56]
6,> 100,COC(=O)c1nc(NC(=O)COC(=O)c2cccc(S(N)(=O)=O)c2)sc1-c1ccccc1 [Compound 57]
7,> 100,CCOC(=O)c1cc(-c2ccccc2)sc1NC(=O)COC(=O)c1cccc(S(=O)(=O)N2CCOCC2)c1 [Compound 58]
8,> 100,CCOC(=O)c1cc(-c2ccccc2)sc1NC(=O)COC(=O)c1cccc(S(=O)(=O)N2CCC(N)C2)c1 (stereo not drawn) [Compound 59]
9,> 100,CCOC(=O)c1cc(-c2ccccc2)sc1NC(=O)COC(=O)c1cccc(O)c1 [Compound 60]
10,> 100,CCOC(=O)c1cc(-c2ccccc2)sc1NC(=O)CNS(=O)(=O)c1cccc(CO)c1 [Compound 61]
11,> 100,CCOC(=O)c1cc(-c2ccccc2)sc1NC(=O)COC(=O)c1cccc(OC(F)(F)F)c1 [Compound 63]
12,≤ 25,CCOC(=O)c1cc(-c2ccccc2)sc1NC(=O)COC(=O)c1cccc(C(C)=O)c1 [Compound 64]
13,> 100,CCOC(=O)c1cc(-c2ccccc2)sc1NC(=O)COC(=O)c1cccc(S(C)(=O)=O)c1 [Compound 65]
14,> 100,CCOC(=O)c1cc(-c2ccccc2)sc1NC(=O)COC(=O)c1ccc(S(N)(=O)=O)cc1 [Compound 68]
15,> 100,CCOC(=O)c1cc(-c2ccccc2)sc1NC(=O)COC(=O)c1ccc(F)c(S(N)(=O)=O)c1 [Compound 69]
16,> 100,CCOC(=O)c1cc(-c2ccc(OC(F)(F)F)cc2)sc1NC(=O)COC(=O)c1cccc(S(N)(=O)=O)c1 [Compound 73]
17,> 100,CCOC(=O)c1cc(-c2ccccc2)sc1NC(=O)COC(=O)c1ccc(Cl)c(S(N)(=O)=O)c1 [Compound 74]
18,≤ 25,CCOC(=O)c1cc(-c2ccc(F)cc2)sc1NC(=O)COC(=O)c1cccc(S(N)(=O)=O)c1 [Compound 75]
19,> 100,CCOC(=O)c1cc(-c2ccccc2)sc1NC(=O)COC(=O)c1cc(S(N)(=O)=O)ccc1C [Compound 76]
20,> 100,CCOC(=O)c1c(NC(=O)COC(=O)c2cccc(S(N)(=O)=O)c2)sc2c1CCC2 [Compound 77]
